Measurements: US12673955B2, “Crystal form of p-toluenesulfonate salt of diazabicyclic compound and preparation method therefor” (CRYSTAL PHARMATECH CO., LTD., priority 2020, dated 2026)

Key:
Assay type in all cases: physicochemical
[1] = PSD test (laser particle size analyzer, wet method)
Method: The particle size distribution results of the present disclosure were collected on S3500-type laser particle size analyzer of the Microtrac company. The Microtrac S3500 was equipped with an SDC (Sample Delivery Controller) sampling system. The wet method was used in this test, using Isopar G (containing 0.2% lecithin) as the test dispersion medium. The process parameters of the laser particle size analyzer were as follows.
Approximately 10-30 mg of tosylate Form A solid was added into 10 mL of Isopar G (containing 0.2% lecithin). The mixture was mixed thoroughly and transferred into the SDC. The experiment was started when the obscuration is in appropriate range. The particle size distribution (PSD) was tested before and after 30 seconds of ultrasound.

[2] = Stability study of tosylate Form A (XRPD and chemical impurity after storage)
Method: Approximately 10 mg of tosylate Form A were stored under different conditions of 25° C./60% RH and 40° C./75% RH. XRPD and chemical impurity were checked at 1 week, 2 weeks, 4 weeks and 8 weeks.
Based on the above results, tosylate Form A kept stable for at least 8 weeks.

[3] = Adhesiveness propensity study (material sticking to the punch); conditions: 8 mm round tooling, 10 kN, 30 s
Method: Approximately 30 mg of tosylate Form A and the solid in the prior art were weighed and then added into the dies of 8 mm round tooling, compressed at 10 kN pressure and held for 30 s. The punch was weighed and amount of material sticking to the punch was calculated. The compression was repeated once and the cumulative amount, maximum amount and average amount of material sticking to the punch during the compression were recorded.

[4] = Intrinsic dissolution of crystalline form; conditions: pH 6.8 phosphate buffer, 900 mL, 37° C., paddle, tablet surface 0.5 cm^2
Method: The intrinsic dissolution rate data of the present disclosure were collected on an Agilent 708DS-type dissolution apparatus of the Agilent company. The intrinsic dissolution test conditions were as follows.
Approximately 100 mg of tosylate Form A and the solid in the prior art were added into the cavity of the die, and then compressed at 5 KN and held for 1 minute to obtain a tablet having a surface area of 0.5 cm^2.

[5] = Hygroscopicity study by dynamic vapor sorption (DVS)
Method: The dynamic vapor sorption diagrams of the present disclosure were collected on Intrinsic-type and Intrinsic Plus-type dynamic vapor sorption instruments of SMS company. The parameters of the dynamic vapor sorption test of the present disclosure were as follows: • Temperature: 25° C. • Protection gas and flow rate: N2, 200 m L/min • dm/dt: 0.002%/min • Minimum dm/dt equilibration time: 10 min • Maximum Equilibration Time: 180 min • Relative humidity range: 0% RH-95% RH-0% RH • Relative humidity gradient: 10% (0% RH-90% RH-0% RH), 5% (90% RH-95% RH and 95% RH-90% RH).
Dynamic vapor sorption (DVS) was applied to test hygroscopicity of tosylate Form A solid and solid in the prior art with about 10 mg of samples. XRPD patterns were collected.
Non-hygroscopic or almost non hygroscopic: increase in mass is less than 0.2 percent.

[6] = Solubility of crystalline form (saturated solutions measured by HPLC); conditions: for solubility at 1 h / solubility at 2 h / solubility at 4 h / solubility at 24 h: thermodynamic from solid
Method: Tosylate Form A and solid in the prior art were suspended into SGF, FaSSIF, FeSSIF and water to get saturated solutions. After equilibrated for 1 hour, 2 hours, 4 hours and 24 hours, concentrations of the saturated solutions were measured by HPLC.

[7] = Crystal habit by polarized light microscopy
Text: The polarized light microscope photos of the present disclosure were taken at room temperature with a Zeiss microscope Axio Scope.A1 equipped with an Axiocam 305 color camera and 5×, 10×, 20× and 50× objective lenses.

[8] = Compressibility of crystalline form (manual tablet press, 350 MPa)
Method: A manual tablet press was used for tabletting. Appropriate amount of tosylate Form A and solid in the prior art were compressed by circle punches under 350 MPa pressure to form a tablet. Hardness (H) of the tablet was determined to be 18.36 N by a tablet hardness tester. Diameter (D) and thickness (L) of the tablet were determined to be 6 mm and 1.02 mm by a vernier caliper, respectively. The tensile strength of the tablets was calculated to be 1.9 MPa through the equation of T=2H/πDL.

[9] = Isopar G containing 0.2% lecithin
[10] = 25° C./60% RH and 40° C./75% RH, up to 8 weeks

change of particle size distribution after sonication ([1]; 30 seconds of ultrasound): no obvious change or agglomeration
mean particle size (MV) [1, 9]: 400 μm
particle size distribution shape [1, 9]: unimodal distribution
time kept stable ([2]; 25° C./60% RH and 40° C./75% RH): at least 8 weeks
Crystalline state after storage [2, 10]: doesn't change
chemical purity after storage [2, 10]: above 99%
Puriy ([2]; 25° C./60% RH, 1 week): 99.92%
Puriy ([2]; 25° C./60% RH, 2 weeks): 100.0%
Puriy ([2]; 25° C./60% RH, 4 weeks): 99.89%
Puriy ([2]; 25° C./60% RH, 8 weeks): 99.92%
Puriy ([2]; 40° C./75% RH, 1 week): 99.90%
Puriy ([2]; 40° C./75% RH, 2 weeks): 99.91%
Puriy ([2]; 40° C./75% RH, 4 weeks): 99.90%
Puriy ([2]; 40° C./75% RH, 8 weeks): 99.91%
adhesiveness compared with the prior art solid [3]: superior to the prior art solid
form change after DVS test (XRPD) ([5]; 0% RH-95% RH-0% RH, 25° C.): no obvious form change
hygroscopicity class ([5]; Chinese Pharmacopoeia 2015 definition, from DVS weight gain at 80% RH): slightly hygroscopic
weight gain (DVS) ([5]; at 80% RH, 25° C.): 0.35%
hygroscopicity compared with the prior art ([5]; versus solid in the prior art): relatively lower hygroscopicity
solubility at 1 h ([6]; simulated gastric fluid, SGF): 5540 µg/mL
solubility at 2 h ([6]; simulated gastric fluid, SGF): 5990 µg/mL
solubility at 4 h ([6]; simulated gastric fluid, SGF): 5080 µg/mL
solubility at 24 h ([6]; simulated gastric fluid, SGF): 5690 µg/mL
solubility at 1 h ([6]; FaSSIF): 7120 µg/mL
solubility at 2 h ([6]; FaSSIF): 7310 µg/mL
solubility at 4 h ([6]; FaSSIF): 7300 µg/mL
solubility at 24 h ([6]; FaSSIF): 7540 µg/mL
solubility at 1 h ([6]; FeSSIF): 6770 µg/mL
solubility at 2 h ([6]; FeSSIF): 7030 µg/mL
solubility at 4 h ([6]; FeSSIF): 7340 µg/mL
solubility at 24 h ([6]; FeSSIF): 7780 µg/mL
solubility at 1 h ([6]; water, H2O): 5260 µg/mL
solubility at 2 h ([6]; water, H2O): 5340 µg/mL
solubility at 4 h ([6]; water, H2O): 5240 µg/mL
solubility at 24 h ([6]; water, H2O): 5560 µg/mL
flowability ([7]; inferred from crystal habit): good flowability
crystal habit ([7]; polarized light microscopy): rod-like particles
compressibility ([8]; 350 MPa pressure): good compressibility
tensile strength of the tablets ([8]; calculated by T=2H/πDL, tablet compressed under 350 MPa): 1.9 MPa
Hardness (H) of the tablet ([8]; tablet compressed under 350 MPa, diameter 6 mm, thickness 1.02 mm): 18.36 N
Compound: Cn1cc(Nc2nccc(N3C[C@H]4CC[C@@H](C3)N4C(=O)[C@@H]3CC3(F)F)n2)cn1 [tosylate Form A, ((1S)-2,2-difluorocyclo-propyl) ((1R,5S)-3-(2-((1-methyl-1H-pyrazol-4-yl)amino)pyrimidin-4-yl)-3,8-diazabicyclo[3.2.1]octan-8-yl)methanone]
intrinsic dissolution rate compared with the solid in the prior art [4]: higher dissolution rate than the solid in the prior art
solubility compared with solid in the prior art ([6]; SGF, FaSSIF, FeSSIF and water): higher than that of solid in the prior art
